Active and inactive are the calls of the source.
Key:
[1] = target: T1, Heat shock factor protein 1 (Mus musculus, UniProt P38532); experiment: inhibition of MG132-induced HSE-luciferase signal, confirmation, cell-based, NIH3T3, luminescence, dose retest (AID 2382); format: functional;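 also: NIH3T3 fibroblasts with HSF1-driven luciferase reporter stressed by proteasome inhibitor MG132; luminescence from HSF1-driven luciferase expression after 8 hours of MG132 stress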
T1 sequence (P38532 whole entry): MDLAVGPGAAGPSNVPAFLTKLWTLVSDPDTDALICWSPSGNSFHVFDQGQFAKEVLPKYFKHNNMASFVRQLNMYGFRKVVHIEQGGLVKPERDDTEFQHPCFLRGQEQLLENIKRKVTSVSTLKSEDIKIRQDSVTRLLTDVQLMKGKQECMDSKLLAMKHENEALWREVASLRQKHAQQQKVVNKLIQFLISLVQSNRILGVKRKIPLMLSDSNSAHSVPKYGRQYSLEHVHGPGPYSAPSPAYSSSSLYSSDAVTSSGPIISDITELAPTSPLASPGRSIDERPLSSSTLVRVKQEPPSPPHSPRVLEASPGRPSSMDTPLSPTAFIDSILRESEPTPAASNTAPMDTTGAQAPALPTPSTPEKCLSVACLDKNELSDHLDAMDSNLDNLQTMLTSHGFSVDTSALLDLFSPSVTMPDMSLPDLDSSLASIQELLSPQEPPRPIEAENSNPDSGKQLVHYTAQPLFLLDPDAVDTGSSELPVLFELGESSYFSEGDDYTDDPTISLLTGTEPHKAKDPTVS

[2] = P. falciparum late gametocyte killing, dose response, luminescence (AID 1117278); format: functional, cell-based;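 also: gametocytes exposed to compound for 24 hours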
[3] = Jurkat T cell cytotoxicity, dose response, cytotoxicity control for P. falciparum gametocyte viability project, luminescence (AID 1117277); format: functional, cell-based;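 also: potency reflects loss of cellular ATP meaning fewer viable cells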
Prothrombin = Prothrombin (Homo sapiens, UniProt P00734); experiment: Thrombin 1536 HTS Dose Response Confirmation. [Related pubchem assays: 1046 (Thrombin 1536 HTS; hits were confirmed in this assay)]; format: functional
14-3-3 protein gamma = target: T2, 14-3-3 protein gamma (Homo sapiens, UniProt P61981); experiment: modulators of 14-3-3 gamma client binding – dose response (AID 711); format: functional
T2 sequence (P61981 whole entry): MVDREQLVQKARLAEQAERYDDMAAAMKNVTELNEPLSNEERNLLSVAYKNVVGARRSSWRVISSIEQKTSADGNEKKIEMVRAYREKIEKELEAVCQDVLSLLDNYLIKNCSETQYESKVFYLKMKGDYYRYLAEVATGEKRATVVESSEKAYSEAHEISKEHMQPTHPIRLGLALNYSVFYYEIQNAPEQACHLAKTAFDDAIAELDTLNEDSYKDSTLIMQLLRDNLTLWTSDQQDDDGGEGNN

Cytochrome P450 2C19 = Cytochrome P450 2C19 (Homo sapiens, UniProt P33261); experiment: Cytochrome panel assay with activity outcomes. Panel member name: p450-cyp2c19 Compounds with AC50 equal or less than 10 uM are considered active; format: functional
[4] = target: T3, Oxysterols receptor LXR-beta (Homo sapiens, UniProt P55055); format: functional, cell-based;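 also: Cell-based luminescence dose-response assay of agonist activity at LXR, run as a confirmatory counterscreen to a daf-12 agonist screen; HEK293 cells with Gal4-LXR fusion and GAL4-driven luciferase reporter; agonist potency from rising luciferase signal of a Gal4-LXR reporter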
T3 sequence (P55055 whole entry): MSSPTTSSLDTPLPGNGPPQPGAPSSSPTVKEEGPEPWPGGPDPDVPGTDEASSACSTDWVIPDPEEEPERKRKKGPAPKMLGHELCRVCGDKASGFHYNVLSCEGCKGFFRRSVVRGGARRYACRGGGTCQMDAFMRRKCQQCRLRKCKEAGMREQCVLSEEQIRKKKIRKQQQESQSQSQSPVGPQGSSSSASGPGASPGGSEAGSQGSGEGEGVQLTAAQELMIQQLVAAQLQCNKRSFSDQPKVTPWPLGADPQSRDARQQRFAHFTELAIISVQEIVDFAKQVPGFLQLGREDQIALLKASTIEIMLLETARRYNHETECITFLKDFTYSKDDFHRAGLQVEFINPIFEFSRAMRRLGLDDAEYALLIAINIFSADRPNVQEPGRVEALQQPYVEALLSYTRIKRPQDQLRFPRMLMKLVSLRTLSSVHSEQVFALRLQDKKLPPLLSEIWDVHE

Cytochrome P450 2D6 = Cytochrome P450 2D6 (Homo sapiens, UniProt P10635);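 also: CYP2D6 member of a cytochrome P450 panel assay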
Cytochrome P450 2C9 = Cytochrome P450 2C9 (Homo sapiens, UniProt P11712)
[5] = target: E3 ubiquitin-protein ligase Mdm2 (Homo sapiens, UniProt Q00987); experiment: enhancers of MDM2-luciferase reporter signal, concentration-effect titration, project on inhibitors of MDM2 ubiquitin ligase, cellular assay, luminescent readout, 384-well plate format (AID 1394); format: functional;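 also: MDM2 E3 inhibitors raise luminescence so EC50 is for signal enhancement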
BJ [6] = experiment: cytotoxicity toward BJ-TERT fibroblasts, dose response, cell-based, RAS-independent, luminescence (AID 1933); format: functional; settings: Homo sapiens
BJ [7] = experiment: cells; format: functional, cell-based; settings: Homo sapiens
BJ [8] = experiment: cytotoxicity toward BJ-TERT-LT-ST fibroblasts, dose response, cell-based, RAS-independent, luminescence (AID 1935); format: functional; settings: Homo sapiens;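 also: BJ fibroblasts immortalized with TERT plus LT and ST oncogenes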
[9] = cytotoxicity toward DRD oncogenic fibroblasts, dose response, cell-based, non-viral oncogenic, luminescence (AID 1934); format: functional; settings: Homo sapiens
[10] = target: Heat shock protein HSP 90-alpha (Homo sapiens, UniProt P07900); format: functional, organism-based
INS1 = experiment: beta cell apoptosis inhibitors, cytokine rescue, dose response, luminescence, retest (AID 449756); format: functional, cell-based; settings: Rattus norvegicus;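 also: cell death triggered by IL-1 beta plus TNF-alpha plus IFN-gamma mixture; protective hits raise ATP signal compared with cytokine alone wells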
[11] = inhibitors of HIV Env-driven cell fusion, dose response, cherry-pick (AID 652057); format: functional, cell-based
[12] = CEM21 lymphoblast cell cytotoxicity, dose response, cytotoxicity control for viral fusion inhibitor project, CellTiter-Glo luminescence, cherry-picked (AID 652042); format: functional, cell-based;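 also: potency for signal decrease meaning cytotoxicity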
[13] = ZM109 Env clade C HIV-1 fusion inhibitors, dose response, HeLa effector, CEM target cells, luciferase, cherry-pick (AID 652058); format: functional, cell-based
Paired box protein Pax-8 = Paired box protein Pax-8 (Homo sapiens, UniProt Q06710); experiment: inhibitors of PAX8-driven TPO luciferase reporter, dose response, RMG-I cells, cherry-pick (AID 687027); format: functional, cell-based;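 also: luciferase reporter driven by Pax8 target thyroperoxidase promoter measured by SteadyGlo luminescence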
[14] = off-target signal loss in HeLa-CEM21 co-culture – HeLa F-luc CTL cells, cherry-picked, counter-screen for HIV-1 Env fusion inhibitor project, dose response (AID 652040); format: functional, cell-based;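 also: potency for signal decrease marking cytotoxic or nonspecific inhibition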
[15] = inhibitors of clade B AD8 Env fusion, dose response, cell-based, cherry-pick (AID 652062); format: functional;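 also: luciferase signal from cell-cell fusion driven by HIV-1 clade B AD8 Env; potency is for inhibitors of fusion seen as a drop in luminescence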
[16] = A549 cell cytotoxicity, dose response, cytotoxicity control, plate reader, cherry-pick, antagonist series (AID 743412); format: functional, cell-based
[17] = HepG2 cell cytotoxicity, dose response, cytotoxicity control, plate reader, cherry-pick, antagonist series (AID 743416); format: functional, cell-based
[18] = LGR2 antagonists, dose response, cell-based, HEK293, CRE-luciferase reporter, cherry pick, set 2 (AID 743343); format: functional;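 also: transfected cells were stimulated with diluted bursicon conditioned medium after compound addition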
[19] = non-specific cell cytotoxicity, dose response, cytotoxicity control for PAX8 inhibitor project, plate reader, dry powder samples (AID 743021); format: functional, cell-based
[20] = MC4R antagonists, dose response, counter-screen for LGR2 antagonist project, cell-based, plate reader, cherry pick (AID 743444); format: functional;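 also: transfected HEK 293 cells stimulated with alpha-MSH peptide; potency of inhibitors of the alpha-MSH evoked signal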
[21] = HEK293 cell cytotoxicity, dose response, cytotoxicity control, plate reader, cherry-picked samples (AID 743446); format: functional, cell-based
Aminopeptidase N = target: T4, Aminopeptidase N (Plasmodium falciparum FcB1/Columbia, UniProt O96935); experiment: P. falciparum M1AAP inhibitors, biochemical, fluorogenic H-Leu-NHMec substrate, 1536-well (AID 1445); set-up: species or system Plasmodium falciparum 3D7, 3D7
T4 sequence (O96935 whole entry): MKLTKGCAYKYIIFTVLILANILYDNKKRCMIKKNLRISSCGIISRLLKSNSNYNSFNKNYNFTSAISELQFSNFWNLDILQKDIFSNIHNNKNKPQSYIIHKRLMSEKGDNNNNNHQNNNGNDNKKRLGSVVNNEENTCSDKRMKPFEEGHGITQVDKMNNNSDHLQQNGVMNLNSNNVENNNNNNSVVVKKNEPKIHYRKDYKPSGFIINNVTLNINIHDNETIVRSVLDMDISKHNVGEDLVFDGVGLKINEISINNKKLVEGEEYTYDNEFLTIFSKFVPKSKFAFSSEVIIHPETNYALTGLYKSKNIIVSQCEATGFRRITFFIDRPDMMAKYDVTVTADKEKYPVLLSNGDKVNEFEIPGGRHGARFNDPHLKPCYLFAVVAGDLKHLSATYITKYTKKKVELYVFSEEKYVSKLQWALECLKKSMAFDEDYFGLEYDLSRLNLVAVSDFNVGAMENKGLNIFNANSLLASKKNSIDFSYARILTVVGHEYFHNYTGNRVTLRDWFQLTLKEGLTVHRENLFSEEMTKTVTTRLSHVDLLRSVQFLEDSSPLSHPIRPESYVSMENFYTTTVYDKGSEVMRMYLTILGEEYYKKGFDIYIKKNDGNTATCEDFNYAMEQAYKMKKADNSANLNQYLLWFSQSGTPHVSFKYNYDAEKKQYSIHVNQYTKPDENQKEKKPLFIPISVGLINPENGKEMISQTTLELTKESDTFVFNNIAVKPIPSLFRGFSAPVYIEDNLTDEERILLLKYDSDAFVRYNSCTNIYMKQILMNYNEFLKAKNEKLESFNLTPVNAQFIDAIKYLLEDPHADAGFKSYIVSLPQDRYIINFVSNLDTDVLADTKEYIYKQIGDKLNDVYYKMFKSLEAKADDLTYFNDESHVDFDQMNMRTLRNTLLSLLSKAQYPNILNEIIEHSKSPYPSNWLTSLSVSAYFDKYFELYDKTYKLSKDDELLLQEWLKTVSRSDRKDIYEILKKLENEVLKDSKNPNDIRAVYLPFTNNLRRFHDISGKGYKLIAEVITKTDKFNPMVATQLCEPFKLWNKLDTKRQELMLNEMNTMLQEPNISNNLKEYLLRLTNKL

[22] = target: T5, Polyadenylate-binding protein 1 (Homo sapiens, UniProt P11940); experiment: PABP1 MLLE–PAM2 interaction inhibitors, dose response, miRNA deadenylation inhibitor project, biochemical, fluorescence polarization, Cy5-PAM2 peptide, secondary (AID 602260); format: functional; settings: read-out: IC50_Mean
[23] = target: T5, Polyadenylate-binding protein 1; experiment: PABP1 MLLE–PAM2 binding inhibitor potency, dose response, biochemical, fluorescence polarization, FITC-PAM2 peptide (AID 602259); format: functional; settings: read-out: IC50_Mean
[24] = target: Endoplasmic reticulum aminopeptidase 1 (Homo sapiens, UniProt Q9NZ08); experiment: ERAP1 aminopeptidase inhibitors, dose response, biochemical, cherry-pick, set 2, plate reader (AID 743314)
Sequence of Endoplasmic reticulum aminopeptidase 1 (Q9NZ08 whole entry): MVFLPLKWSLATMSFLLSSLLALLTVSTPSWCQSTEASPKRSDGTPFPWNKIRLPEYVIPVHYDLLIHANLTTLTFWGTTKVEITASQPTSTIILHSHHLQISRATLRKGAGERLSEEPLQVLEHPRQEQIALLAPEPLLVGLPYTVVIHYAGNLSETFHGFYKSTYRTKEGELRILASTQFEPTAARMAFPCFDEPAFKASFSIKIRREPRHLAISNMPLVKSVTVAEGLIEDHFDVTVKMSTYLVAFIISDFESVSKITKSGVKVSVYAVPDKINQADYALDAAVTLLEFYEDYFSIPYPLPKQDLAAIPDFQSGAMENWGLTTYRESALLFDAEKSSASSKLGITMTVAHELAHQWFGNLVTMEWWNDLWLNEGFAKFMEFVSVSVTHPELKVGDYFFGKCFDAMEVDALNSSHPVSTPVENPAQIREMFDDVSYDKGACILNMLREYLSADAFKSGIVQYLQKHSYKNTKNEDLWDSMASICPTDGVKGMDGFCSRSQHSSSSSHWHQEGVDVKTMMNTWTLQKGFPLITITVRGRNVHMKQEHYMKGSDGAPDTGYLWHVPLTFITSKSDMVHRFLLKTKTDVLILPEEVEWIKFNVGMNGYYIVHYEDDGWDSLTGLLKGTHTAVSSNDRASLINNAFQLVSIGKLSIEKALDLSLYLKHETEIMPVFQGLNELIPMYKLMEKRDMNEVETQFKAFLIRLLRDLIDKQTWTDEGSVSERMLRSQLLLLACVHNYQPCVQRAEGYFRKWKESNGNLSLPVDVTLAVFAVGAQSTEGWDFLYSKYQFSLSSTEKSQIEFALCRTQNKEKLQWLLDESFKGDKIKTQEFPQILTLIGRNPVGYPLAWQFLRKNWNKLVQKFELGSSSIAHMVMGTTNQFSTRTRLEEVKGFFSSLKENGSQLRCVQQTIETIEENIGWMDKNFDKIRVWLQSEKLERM

T5 sequence (P11940 whole entry): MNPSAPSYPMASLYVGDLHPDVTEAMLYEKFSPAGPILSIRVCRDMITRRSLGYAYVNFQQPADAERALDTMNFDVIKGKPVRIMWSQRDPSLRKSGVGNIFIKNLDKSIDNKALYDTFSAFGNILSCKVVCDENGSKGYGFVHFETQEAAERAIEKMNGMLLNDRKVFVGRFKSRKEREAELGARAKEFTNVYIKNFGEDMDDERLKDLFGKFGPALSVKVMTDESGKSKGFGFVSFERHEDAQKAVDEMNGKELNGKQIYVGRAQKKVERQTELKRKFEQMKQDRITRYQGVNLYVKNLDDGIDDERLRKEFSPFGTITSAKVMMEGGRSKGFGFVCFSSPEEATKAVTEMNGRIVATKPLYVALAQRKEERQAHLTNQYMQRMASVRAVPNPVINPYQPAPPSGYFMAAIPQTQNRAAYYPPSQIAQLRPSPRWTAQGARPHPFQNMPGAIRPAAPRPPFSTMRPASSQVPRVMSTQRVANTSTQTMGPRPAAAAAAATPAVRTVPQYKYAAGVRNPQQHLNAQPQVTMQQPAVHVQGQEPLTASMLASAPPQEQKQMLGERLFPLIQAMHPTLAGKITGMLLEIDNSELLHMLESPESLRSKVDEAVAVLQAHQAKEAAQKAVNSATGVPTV
Sequence of E3 ubiquitin-protein ligase Mdm2 (Q00987 whole entry): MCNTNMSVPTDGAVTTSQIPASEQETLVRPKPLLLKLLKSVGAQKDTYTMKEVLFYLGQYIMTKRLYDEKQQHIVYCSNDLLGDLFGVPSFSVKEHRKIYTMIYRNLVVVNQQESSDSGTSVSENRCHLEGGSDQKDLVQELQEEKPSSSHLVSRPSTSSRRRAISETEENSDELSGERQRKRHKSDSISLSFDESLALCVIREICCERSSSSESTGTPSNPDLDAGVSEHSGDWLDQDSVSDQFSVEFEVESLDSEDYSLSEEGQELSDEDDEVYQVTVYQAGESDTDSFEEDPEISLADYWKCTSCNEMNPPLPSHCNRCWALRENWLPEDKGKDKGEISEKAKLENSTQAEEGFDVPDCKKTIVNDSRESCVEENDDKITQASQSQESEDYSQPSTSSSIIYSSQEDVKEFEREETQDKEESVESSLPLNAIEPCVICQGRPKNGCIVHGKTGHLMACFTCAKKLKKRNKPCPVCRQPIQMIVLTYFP
Sequence of Paired box protein Pax-8 (Q06710 whole entry, the tested form may be a part): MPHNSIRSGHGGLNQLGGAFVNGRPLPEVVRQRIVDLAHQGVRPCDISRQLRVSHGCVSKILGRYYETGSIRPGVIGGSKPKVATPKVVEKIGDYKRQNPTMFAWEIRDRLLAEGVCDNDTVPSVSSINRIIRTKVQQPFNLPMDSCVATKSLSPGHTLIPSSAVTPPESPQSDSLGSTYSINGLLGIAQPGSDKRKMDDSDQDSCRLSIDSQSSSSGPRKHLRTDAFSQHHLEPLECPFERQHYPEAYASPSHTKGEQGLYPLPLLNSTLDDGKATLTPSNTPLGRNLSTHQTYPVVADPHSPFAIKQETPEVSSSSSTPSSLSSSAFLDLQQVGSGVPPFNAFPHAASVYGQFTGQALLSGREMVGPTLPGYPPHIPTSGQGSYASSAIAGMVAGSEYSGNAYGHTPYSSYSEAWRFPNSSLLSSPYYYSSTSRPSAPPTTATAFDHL
Sequence of Cytochrome P450 2D6 (P10635 whole entry): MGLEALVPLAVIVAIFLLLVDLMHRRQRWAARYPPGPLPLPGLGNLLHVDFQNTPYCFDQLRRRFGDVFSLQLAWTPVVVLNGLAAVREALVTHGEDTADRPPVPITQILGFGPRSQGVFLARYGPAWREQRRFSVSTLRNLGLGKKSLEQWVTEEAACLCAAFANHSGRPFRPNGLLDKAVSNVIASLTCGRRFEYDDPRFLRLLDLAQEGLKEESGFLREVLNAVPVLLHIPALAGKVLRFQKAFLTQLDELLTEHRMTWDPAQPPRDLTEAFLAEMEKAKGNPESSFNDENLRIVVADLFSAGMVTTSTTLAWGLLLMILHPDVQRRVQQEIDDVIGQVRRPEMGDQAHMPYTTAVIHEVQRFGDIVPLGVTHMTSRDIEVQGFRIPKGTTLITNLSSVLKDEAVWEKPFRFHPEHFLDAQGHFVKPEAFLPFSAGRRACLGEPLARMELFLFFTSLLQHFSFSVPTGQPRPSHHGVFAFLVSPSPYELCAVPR
Sequence of Cytochrome P450 2C9 (P11712 whole entry): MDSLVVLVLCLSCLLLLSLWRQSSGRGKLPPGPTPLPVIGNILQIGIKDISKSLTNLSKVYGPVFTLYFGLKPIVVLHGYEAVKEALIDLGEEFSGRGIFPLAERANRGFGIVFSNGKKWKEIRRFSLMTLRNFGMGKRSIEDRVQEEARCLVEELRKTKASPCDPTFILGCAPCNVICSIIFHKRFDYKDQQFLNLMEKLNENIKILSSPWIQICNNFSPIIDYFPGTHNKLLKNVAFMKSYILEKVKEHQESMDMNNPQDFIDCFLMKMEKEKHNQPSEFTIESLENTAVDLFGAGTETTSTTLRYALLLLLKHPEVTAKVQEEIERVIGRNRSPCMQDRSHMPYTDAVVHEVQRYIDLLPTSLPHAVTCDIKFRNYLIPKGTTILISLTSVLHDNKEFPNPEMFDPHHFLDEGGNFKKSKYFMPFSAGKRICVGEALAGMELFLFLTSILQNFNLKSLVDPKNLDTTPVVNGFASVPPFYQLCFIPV
Sequence of Cytochrome P450 2C19 (P33261 whole entry, the tested form may be a part): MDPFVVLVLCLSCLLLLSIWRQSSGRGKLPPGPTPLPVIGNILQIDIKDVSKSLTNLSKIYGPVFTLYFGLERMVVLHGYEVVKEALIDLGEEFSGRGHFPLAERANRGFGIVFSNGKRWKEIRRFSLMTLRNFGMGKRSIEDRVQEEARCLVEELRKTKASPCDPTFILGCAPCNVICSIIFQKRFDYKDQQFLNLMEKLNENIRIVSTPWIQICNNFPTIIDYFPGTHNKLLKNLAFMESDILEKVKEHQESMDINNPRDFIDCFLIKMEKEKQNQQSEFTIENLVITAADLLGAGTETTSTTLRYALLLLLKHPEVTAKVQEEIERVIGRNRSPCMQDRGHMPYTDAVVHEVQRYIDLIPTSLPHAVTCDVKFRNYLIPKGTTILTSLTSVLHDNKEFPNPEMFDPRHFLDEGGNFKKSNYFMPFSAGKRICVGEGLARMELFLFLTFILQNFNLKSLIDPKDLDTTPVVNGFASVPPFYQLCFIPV

## CN(C)c1nc(OCCNC(=O)COc2ccc(Cl)cc2Cl)nc(N(C)C)n1
[1]
  EC50: > 195 µM (not active)
[2]
  IC50: > 109 µM (inactive)
[3]
  IC50: > 83.3 µM (inactive)

## COc1ccc(C(=O)n2ncc(C#N)c2N)cc1
Prothrombin
  IC50: 15.1 µM (active)

## Cc1ccccc1CS(=O)(=O)Cc1ccc(C(=O)NCc2ccccn2)o1
14-3-3 protein gamma
  IC50: 50 µM (not active)

## Cn1cc(-c2nnc(-c3ccccc3)o2)c2ccccc21
Cytochrome P450 2C19
  AC50: inconclusive
[4]
  EC50: > 67.5 µM (inactive)
Cytochrome P450 2D6
  AC50: 3.55 µM (inconclusive)
Cytochrome P450 2C9
  AC50: inconclusive
cells
  EC50: > 67.5 µM (inactive)

## CCCCC1(C(=O)OCC)CC(CN2CCOCC2)OC1=O (stereo not drawn)
14-3-3 protein gamma
  IC50: > 50 µM (not active)

## COc1ccc(C)cc1NC(=O)C(OC(=O)CNC(=O)c1cc(C)cc(C)c1)c1ccccc1 (stereo not drawn)
[5]
  EC50: 7.51 µM (not active)

## Cc1nn(-c2nc3ccccc3[nH]2)c(=O)c2ccccc12
BJ [6]
  EC50: 1.06 µM (active)
BJ [7]
  EC50: 1.04 µM (active)
BJ [8]
  EC50: 3.5 µM (active)
[9]
  EC50: 1.01 µM (active)
[10]
  AC50: 4.97 µM (active)
INS1
  AC50: 1.3 µM (active)
[11]
  AC50: 0.534 µM (active)
[12]
  AC50: 2.08 µM (active)
[13]
  AC50: 5.84 µM (active)
Paired box protein Pax-8
  AC50: 1.54 µM (active)
[14]
  AC50: 1.36 µM (active)
[15]
  AC50: 1.46 µM (active)
[16]
  AC50: 2.04 µM (active)
[17]
  AC50: 14.8 µM (active)
[18]
  AC50: 0.352 µM (active)
[19]
  AC50: 1.72 µM (active)
[20]
  AC50: 0.352 µM (active)
[21]
  AC50: 2.33 µM (active)
[2]
  IC50: 8.6 µM (active)
[3]
  IC50: 2.41 µM (active)

## c1ccc2c(-c3nnc4n3CCCCC4)cc(-c3ccncc3)nc2c1
Prothrombin
  IC50: > 50 µM (not active)

## CCN(CC)Cc1c(O)c(Cl)cc2c(C)cc(=O)oc12
Aminopeptidase N
  IC50: 48.6 µM (active)
[22]
  IC50: > 66 µM (inactive)
[23]
  IC50: 39.1 µM (inactive)
[24]
  AC50: 4.88 µM (active)

## COc1ccc(N2C(S)=NC(=Nc3ccccc3)C23CCCCC3)cc1
Prothrombin
  IC50: > 50 µM (not active)

## COc1cc2nc(CN(C)Cc3ccc(F)cc3)nc(O)c2cc1OC
[2]
  IC50: > 109 µM (inactive)
[3]
  IC50: > 83.2 µM (inactive)

## OCc1cccc(-c2cnc3c(Nc4cccc(OC(F)(F)C(F)F)c4)nccn23)c1
[16]
  AC50: 43.3 µM (active)
[17]
  AC50: 41.7 µM (active)
[18]
  AC50: 23.8 µM (active)
[20]
  AC50: 26.8 µM (active)
[21]
  AC50: > 52 µM (inactive)

## CC(C)(C)c1ccc(Nc2[nH]nc3ccccc23)cc1
[4]
  EC50: > 67.6 µM (inactive)
cells
  EC50: > 67.6 µM (inactive)

## N#C[C@H]1[C@H](c2ccc(C#Cc3ccccc3F)cc2)[C@H](CO)N1C(=O)C1CC1
[16]
  AC50: 23.9 µM (active)
[17]
  AC50: 34.7 µM (active)
[18]
  AC50: 16.4 µM (active)
[20]
  AC50: 12.8 µM (active)
[21]
  AC50: 15.4 µM (active)

## CCCN(CCC)CCNc1c(NC2CCN(C(=O)OCC)CC2)c(=O)c1=O
[5]
  EC50: 16.1 µM (not active)

Source: ChEMBL document CHEMBL1201862, “PubChem BioAssay data set” (2004)
